Results reported in US12385042B2, “Cell-penetrating peptides” (VECTIOPEP OÜ, priority 2019, dated 2025).

system: U87 MG-luc2 human glioma cells, stably expressing luc2; assay: Luciferase gene downregulation by CPP/siRNA (siLuc2) complexes; type: cell-based; details: CPP/siRNA complexes, siRNA against luciferase
Procedure: For assessing the siRNA mediated RNAi, CHO-GFP or U87-luc2 cells (5×10^5 cells per well) were seeded on a 24-well plate a day prior to the experiment and grown in serum containing media. On experiment day, prior to adding pre-formed complexes ( 1/10th of the final volume per well), media was replaced with fresh serum containing medium.
For complex formation, peptide was mixed with luc2 siRNA (sense 5′-[…]-3′ (SEQ ID NO:7), antisense 5′-[…] 3′ (SEQ ID NO:8), Metabion, Germany) or with siRNA against GFP (5′-[…] (SEQ ID NO:9), 3′-[…] (SEQ ID NO:10)) in mQ water (pH 5.3-6.3) using peptide to siRNA molar ratios (MR is the ratio of peptide to siRNA) […] and incubated at RT for 1 h. For siLuc2, the final concentration in media was 25 nM and for siGFP 100 nM. Cells were co-incubated with complexes for 4 h (37° C., 5% CO2), thereafter fresh serum containing media was added and followed by further incubation (20 h for siLuc2 or 44 h for siGFP complexes). Luciferase gene downregulation was measured from cell lysates with Promega luciferase assay system (Promega, Sweden) in combination with GLOMAX 96 microplate luminometer equipped with GLOMAX 1.9.2 software (Promega). GFP was measured after treatment from cell lysates on black 96-well plates by measuring total fluorescence (Symergy MX, BioTek Instruments, USA equipped with Gen5 1.10 software). The results were normalized to the protein content of each sample (DC Protein Assay, BioRad, USA).
Luciferase activity was determined as described in previous paragraph.
For determination of pH dependency on the transfection efficiency, complexes were formed at MR30, incubated and diluted before addition to cells to obtain siRNA final concentration 10 nM in transfection media. HEPES buffer supplemented with 10% FBS was used as transfection media. Complexes were co-incubated with cells for 4 h and then media was replaced with cell growth media. After further 20 h incubation cells were lysed and analyzed as described previously.
The experiment was carried out in serum containing media (10% FBS). CPP/siRNA complexes were formed at different molar ratios with siRNA concentration kept constant (50 nM in transfection media). Luminescence from luciferin-luciferase reaction was measured at 24 hours post-treatment from cell lysate. Results were normalized to protein content and luminescence values from untreated cells (100%).

Row | Substance | Red (%) (reduction, based on remaining luminescence on U87 cells post-treatment)
1 | HHHHHHGO^eILLKALKALAKAIL [NF706, C22 fatty acid on N-terminus; C-terminally amidated] | 59
2 | HHHHHHYHHGO^eILLKALKALAKAIL [NF721, group H8; C18 saturated fatty acid on N-terminus; C-terminally amidated] | 55
3 | HHHHHHYHHGO^eILLKALKALAKAIL [NF722, group H8; C22 saturated fatty acid on N-terminus; C-terminally amidated] | 45
4 | HHHHHHYLLGO^eILLKALKALAKAIL [NF707, group H6^2 (histidines before tyrosine); C18 fatty acid on N-terminus; C-terminally amidated] | 70
5 | HHHHHHYLLGO^eILLKALKALAKAIL [NF708, group H6^2 (histidines before tyrosine); C20 fatty acid on N-terminus; C-terminally amidated] | 71
6 | HHHHHHYLLGO^eILLKALKALAKAIL [NF709, group H6^2 (histidines before tyrosine); C22 fatty acid on N-terminus; C-terminally amidated] | 55
7 | HHHHHYHHGO^eILLKALKALAKAIL [NF719, group H7; C18 saturated fatty acid on N-terminus; C-terminally amidated] | 39
8 | HHHHHYHHGO^eILLKALKALAKAIL [NF723, group H7; C20 saturated fatty acid on N-terminus; C-terminally amidated] | 49
9 | HHHHHYHHGO^eILLKALKALAKAIL [NF724, group H7; C22 saturated fatty acid on N-terminus; C-terminally amidated] | 40
10 | HHHHYHHGO^eILLKALKALAKAIL [NF701, group H6; C10 (decanoyl) fatty acid on N-terminus; C-terminally amidated] | 20
11 | HHHHYHHGO^eILLKALKALAKAIL [NF711, group H6; C16 saturated fatty acid on N-terminus; C-terminally amidated] | 35
12 | HHHYHHGO^eILLKALKALAKAIL [NF715, group H5; C18 saturated fatty acid on N-terminus; C-terminally amidated] | 62
13 | HHHYHHGO^eILLKALKALAKAIL [NF718, group H5; C22 saturated fatty acid on N-terminus; C-terminally amidated] | 75
14 | HHYHHGO^eILLKALKALAKAIL [NF712, group H4; C20 saturated fatty acid on N-terminus; C-terminally amidated] | 83
15 | HHYHHGO^eILLKALKALAKAIL [NF713, group H4; C22 saturated fatty acid on N-terminus; C-terminally amidated] | 47
16 | HHYHHGO^eILLKALKALAKAIL [NF717, group H4; C16 saturated fatty acid on N-terminus; C-terminally amidated] | 43
17 | HYHHGO^eILLKALKALAKAIL [NF726, group H3; C20 saturated fatty acid on N-terminus; C-terminally amidated] | 50
